Laboratory results as given in US10385321B2, “MRP-14 targeting peptides and uses thereof” (priority 2016, dated 2019).
“Also recorded” adds a separate entry of the source. Where two headings read alike, the source gives them in different places. Positions of bridges follow the written chain, without caps; N, C: chain ends. Residues, ends and D or L forms follow the SMILES beside them. *: point of attachment. X1 = [N-]=[N+]=NC[C@H](NC(=O)CCC(=O)NCCCOCCOCCOCCCN*)C(=O)O

Tests used:
MRP-14 [1] = molecular target: T1, MRP-14 (Homo sapiens, UniProt P06702); experiment: SPR binding of peptides to immobilized His-tagged MRP-14; conditions: for SPR binding behaviour (in words): sensorgrams, immobilized MRP-14
T1 construct: purchased Novus Biologicals
T1 sequence (P06702 1-114): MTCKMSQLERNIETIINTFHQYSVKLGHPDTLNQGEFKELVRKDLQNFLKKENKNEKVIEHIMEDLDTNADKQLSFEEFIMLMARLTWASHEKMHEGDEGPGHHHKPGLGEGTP
Protocol: Shortlisted MRP-14 targeting peptides (MTPs) were synthesized with a GGGS spacer and C-terminal amidation (Genscript) and their binding affinities characterized by SPR using Biacore T100 (GE Healthcare). PBST (0.05% Tween 20), pH 7.4 containing […] ethylenediaminetetraacetic acid (EDTA) was used as the running buffer. NTA sensor chips (GE Healthcare) were charged with 0.5 mM NiCl2 solution for 2 minutes at a flowrate of 10 μL/min, then 10 μg/mL His-tagged MRP-14 was bound for 2 minutes at 10 μL/min. For testing affinity to MRP-8/14, untagged MRP-8 (Novus Biologicals) was premixed in a 1:1 ratio with His-tagged MRP-14 for 3 hours in the presence of 0.1 mM CaCl2. Peptides at concentrations ranging from 6.25 μM to 100 μM diluted in running buffer were then injected at 30 μL/min for 1 minute association followed by 1 minute dissociation. Affinity was calculated by fitting a saturation binding curve to the equilibrium response vs. peptide concentration graph.
Their binding affinity to MRP-14 was then quantified using surface plasmon resonance (SPR) with an NTA sensor chip. After charging with Ni^2+, His-tagged MRP-14 was immobilized on the chip.

[2] = test system: platelet thrombi in anticoagulated blood on collagen-coated capillaries; experiment: Ex vivo shear-induced thrombus formation in perfusion (flow) chamber; conditions: for effect on shear-induced thrombus formation: particles 50 μg/mL, arterial shear rate 600 s^−1, versus PBS only control
Protocol: A perfusion chamber (Portola Pharmaceuticals) was used to evaluate the effect of particles on thrombus formation time. Factor Xa inhibitor anticoagulated blood was labeled with […] Rhodamine 6G (Sigma-Aldrich) for 10 minutes. Particles were added at a final concentration of 50 μg/mL and then the blood perfused through human type III collagen-coated rectangular capillaries at an arterial shear rate of 600 s^−. Thrombus formation under flow was then visualized in real time and average fluorescence of platelet aggregation over time quantified.
Particles were added before perfusion at a concentration of 50 μg/mL, and visualization of thrombus formation was achieved through fluorescence signal from cells labeled with Rhodamine 6G (FIG. 5A). After imaging, average pixel intensity of platelet aggregates over time was quantified (FIG. 5B). […] This is a concern when using nanoparticles to target coagulation factors such as platelets and fibrin due to potential incorporation into the coagulation cascade and further aggregation, as illustrated by the use of such particles for mediating hemostasis.

MRP-8/14 = MRP-8/14 (Homo sapiens, UniProt P06702); experiment: biochemical
Sequence of MRP-8/14 (P05109 whole entry partner, one chain of several): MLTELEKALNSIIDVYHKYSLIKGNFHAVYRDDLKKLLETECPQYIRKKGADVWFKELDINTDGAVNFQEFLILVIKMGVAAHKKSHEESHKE
Protocol: Shortlisted MRP-14 targeting peptides (MTPs) were synthesized with a GGGS spacer and C-terminal amidation (Genscript) and their binding affinities characterized by SPR using Biacore T100 (GE Healthcare). PBST (0.05% Tween 20), pH 7.4 containing 50 ethylenediaminetetraacetic acid (EDTA) was used as the running buffer. NTA sensor chips (GE Healthcare) were charged with 0.5 mM NiCl2 solution for 2 minutes at a flowrate of 10 μL/min, then 10 μg/mL His-tagged MRP-14 was bound for 2 minutes at 10 μL/min. […] Peptides at concentrations ranging from 6.25 μM to 100 μM diluted in running buffer were then injected at 30 μL/min for 1 minute association followed by 1 minute dissociation. Affinity was calculated by fitting a saturation binding curve to the equilibrium response vs. peptide concentration graph.

MRP-14 [3] = molecular target: T1, MRP-14; experiment: Phage ELISA on MRP-14-coated plates; type: binding; conditions: BSA as background
Protocol: Phage specificity for MRP-14 was verified by performing an ELISA. Polysorp 96-well plates (Nunc) were coated with 50 μL of 50 μg/mL MRP-14 in 0.1 M NaHCO3, pH 8.6 in a humidified chamber overnight at 4° C. The coated wells and additional wells for phage dilutions were blocked with 5 mg/mL BSA in 0.1 M NaHCO3, pH 8.6 for 1 hour at 4° C. After washing 6 times with TBST (0.5% Tween 20), 8 serial fourfold dilutions from 10^12 phages/mL down to 6×10^7 phages/mL were performed in blocked wells then 100 μL of the phages added to MRP-14-coated wells and incubated for 1 hour at room temperature. […] Finally, HRP activity was detected using 100 μL 2,2′-azino-bis(3-ethylbenzothiazoline-6-sulfonic acid) diammonium salt (ABTS) colorimetric substrate solution (Life Technologies) at room temperature for 30 minutes. Absorbance was measured at 410 nm using a Tecan Infinite 200 plate reader
To narrow down the peptide library to the ones with highest affinity, an enzyme-linked immunosorbent assay (ELISA) was performed with the isolated phages. […] Bound phage was detected using horseradish peroxidase (HRP)-labeled anti-M13 antibodies followed by addition of 2,2′-azino-bis(3-ethylbenzothiazoline-6-sulfonic acid) diammonium salt (ABTS) substrate (FIG. 1). […]

[4] = test system: thrombi in carotid artery; experiment: Photochemical injury mouse model of thrombosis, Maestro fluorescence imaging of carotid arteries; type: in vivo, C57BL/6 mice; conditions: sCy5-labeled particles 200 μg i.v. before injury; n=3; contralateral artery as control
Protocol: 8-9 week old male C57BL/6 mice were anesthetized by intraperitoneal injection of 62.5 mg/kg sodium pentobarbital. After anesthesia, peptide-targeted and untargeted TMV particles (200 μg/100 μL) were injected intravenously followed by dissection of the mice to expose the right common carotid artery. Rose Bengal dye (10 mg/mL in PBS) was then administered via tail vein injection and a 540 nm green laser light (1.5 mW, Melles Griot) placed 5 cm from the artery was used to stimulate photochemical injury and induce thrombus formation. A Doppler flow probe (Transonic Systems) was placed under the artery and used to monitor blood flow. The mice were sacrificed after vessel occlusion. The artery and the contralateral control were excised and fixed in formalin, then imaged by Maestro fluorescence imaging to determine targeting of the particles (see below).
(§1) The red fluorescence from sCy5 was imaged using Maestro imager, with 800 ms exposure time for the arteries and 400 ms exposure time for the organs. The signal was filtered with 576 to 621 nm excitation and 635-nm longpass emission filters.
Progressing to the mouse model, the particles were first injected intravenously, then thrombosis was induced through photochemical injury of the carotid artery, specifically through reactive oxygen species formation from the reaction of green laser light with injected Rose Bengal dye. A flow probe was used to monitor the development of thrombosis, and the arteries along with their contralateral control were excised following occlusion of the vessel.

[5] = sCy5-labeled particles i.v.; brain, lungs, heart, kidneys, spleen, liver
Protocol: 8-9 week old male C57BL/6 mice were anesthetized by intraperitoneal injection of 62.5 mg/kg sodium pentobarbital. After anesthesia, peptide-targeted and untargeted TMV particles (200 μg/100 μL) were injected intravenously followed by dissection of the mice to expose the right common carotid artery. […] Additionally, to study the biodistribution of the particles, the brain, heart, lungs, kidneys, spleen, and liver were also excised and imaged with Maestro imager.
as §1
Biodistribution was investigated concurrently with the photochemical injury model. The brain, lungs, heart, kidneys, spleen, and liver were collected and particle clearance examined through Maestro imaging (FIG. 6A).

[6] = kinetic fitting, 390.625 nM to 12.5 μM of MTP6

Molecule: CC(C)[C@@H]1NC(=O)[C@H](CO)NC(=O)[C@H](CC(N)=O)NC(=O)[C@@H](NC(=O)[C@H](C)N)CSSC[C@@H](C(=O)NCC(=O)NCC(=O)NCC(=O)N[C@@H](CO)C(=O)NCCCOCCOCCOCCCNC(=O)CCC(=O)N[C@@H](CN=[N+]=[N-])C(=O)O)NC(=O)[C@H](Cc2c[nH]cn2)NC(=O)[C@H](Cc2c[nH]cn2)NC(=O)[C@H](CCC(N)=O)NC(=O)[C@H](Cc2c[nH]cn2)NC1=O [MTP6-N3] (H-ACNSVHQHHCGGGS-X1; disulfide 2-10; N-terminus assumed)
- Kd (MRP-14 [1]; saturation binding curve fit of equilibrium response, peptides 6.25 μM to 100 μM, NTA chip, read-out: Kd (dissociation constant from SPR measurements with MRP-14)): 55.7 µM

Molecule: CC(C)[C@@H]1NC(=O)[C@H](CO)NC(=O)[C@H](CC(N)=O)NC(=O)[C@@H](NC(=O)[C@H](C)N)CSSC[C@@H](C(=O)NCC(=O)NCC(=O)NCC(=O)N[C@@H](CO)C(N)=O)NC(=O)[C@H](Cc2c[nH]cn2)NC(=O)[C@H](Cc2c[nH]cn2)NC(=O)[C@H](CCC(N)=O)NC(=O)[C@H](Cc2c[nH]cn2)NC1=O [MTP6] (H-ACNSVHQHHCGGGS-NH2; disulfide 2-10 (inferred); N-terminus assumed)
- Kd (MRP-14 [1]): 39.6 µM
- effect on shear-induced thrombus formation [2]: does not appear to block involvement of MRP-14 in thrombosis
- Kd (MRP-8/14): 57.6 µM

Molecule: CC(C)C[C@@H]1NC(=O)CNC(=O)[C@H]([C@@H](C)O)NC(=O)[C@@H]2CCCN2C(=O)[C@@H](NC(=O)[C@H](C)N)CSSC[C@@H](C(=O)NCC(=O)NCC(=O)NCC(=O)N[C@@H](CO)C(N)=O)NC(=O)[C@H](C)NC(=O)[C@H](Cc2c[nH]cn2)NC(=O)[C@H](Cc2c[nH]cn2)NC1=O [MTP9] (H-ACPTGLHHACGGGS-NH2; disulfide 2-10 (inferred); N-terminus assumed)
- SPR binding behaviour (in words) (MRP-14 [1]): quick initial interaction followed by a slower binding phase

Molecule: C[C@H](N)C(=O)N[C@H]1CSSC[C@@H](C(=O)NCC(=O)NCC(=O)NCC(=O)N[C@@H](CO)C(=O)O)NC(=O)[C@H](CO)NC(=O)[C@H](Cc2c[nH]cn2)NC(=O)[C@H](CC(N)=O)NC(=O)[C@H](CC(N)=O)NC(=O)[C@H](CCCCN)NC(=O)[C@@H]2CCCN2C(=O)[C@H](CCCNC(=N)N)NC1=O [MTP10]
- SPR binding behaviour (in words) (MRP-14 [1]): did not really associate with MRP-14
- phage binding to MRP-14 (in words) (MRP-14 [3]): one of the best peptides

Molecule: MDPHAHNGGGS [Scrambled, reference compound]
- Kd (dissociation constant from SPR measurements with MRP-14) (MRP-14 [1]; saturation binding curve fit of equilibrium response, peptides 6.25 μM to 100 μM, NTA chip): no
- SPR binding behaviour (in words) (MRP-14 [1]): low non-specific binding

B1: TMV-MTP6: MTP6-N3 attached to the exterior of tobacco mosaic virus by CuAAC, approximately 400 MTP6 per particle; sCy5-labeled for imaging (conjugate)
peptide: ACNSVHQHHCGGGS
chain: SYSITTPSQFVFLSSAWADPIELINLCTNALGNQFQTQQARTVVQRQFSEVWKPSPQVTVRFPDSDFKVYRYNAVLDPLVTALLGAFDTRNRIIEVENQANPTTAETLDATRRVDDATVAIRSAINNLIVELIRGTGSYNRSSFESSSGLVWTSGPAT
- Kd (MRP-14 [1]; kinetic curve fitting instead of equilibrium fit, read-out: Kd (dissociation constant from SPR measurements with MRP-14), kinetic fit): 0.754 µM
- ka (association rate) (MRP-14 [1]; [6]): 909.6 M⁻¹ s⁻¹
- kd (dissociation rate) (MRP-14 [1]; [6]): 0.0006858 s⁻¹
- aggregation of particles in blood ([2]; ex vivo flow model): no aggregation observed
- effect on shear-induced thrombus formation [2]: some delay in thrombus onset; also recorded: no stimulation of thrombosis; also recorded: no significant effect on thrombosis
- targeting of thrombi (fluorescence signal in injured artery) [4]: some success with imaging thrombi; also recorded: targeting was observed; also recorded: targeted TMV-MTP6 attachment to the thrombi and no nonspecific accumulation in the contralateral, uninjured artery
- biodistribution / route of clearance [5]: clearance predominantly through the liver
